Measured values taken from patent US20230139445A1, “BACTERIAL CELLS WITH IMPROVED TOLERANCE TO DIACIDS” (priority 2016, published 2023).

Assays:
[1] = test system: Escherichia coli K-12 MG1655; experiment: Screening for tolerance in wild-type cells: growth in varying concentrations of neutralized diacid, Biolector; type: cell-based; details: for tlag (lag time), mean / μ (growth rate), mean: neutralized with sodium hydroxide
Description: Escherichia coli K-12 MG1655 was grown overnight in M9 minimal medium+1% glucose and subcultured the following morning to an initial OD600 of 0.05 in M9+1% glucose. Cells were grown to mid-exponential phase (OD600 0.7-1.0) and were back-diluted with fresh medium to an OD600 of 0.7. The diluted cells were used to inoculate M9+1% glucose containing varying concentrations of glutaric acid or adipic acid which were neutralized to pH 7.0 with sodium hydroxide, and growth was measured in FlowerPlates in a Biolector microbioreactor system (m2p-labs) at 37° C. with 1000 rpm shaking. The culture volume in each well was 1.4 mL.

[2] = test system: Escherichia coli K-12 MG1655 evolved isolates and knockout mutants; experiment: Biolector growth screening of evolved isolates and reconstructed (knockout) mutants in glutaric or adipic acid; type: cell-based
Description: Biological triplicate cultures of each strain were grown to saturation overnight in 96 well deepwell plates containing 300 μL M9+1% glucose. The next day, cells were diluted 1:10 in deionized water in a clear 96 well plate and the OD600 was measured on a BioTek plate reader. 48 well FlowerPlates containing a final volume of 1.4 mL of M9+1/o glucose (plus relevant chemical) were inoculated to OD600 0.03 (with plate reader pathlength, 200 μL volume) with the overnight culture and sealed with Breathseal film. Light backscatter intensity was monitored in a Biolector microbioreactor system at 37° C. with 1000 rpm shaking.
Each re-sequenced isolate was characterized using the Biolector system for growth at the screening concentration of chemical (47.5 g/L glutaric acid or 50 g/L adipic acid) in biological triplicates.

[3] = strain GLUT1-3, M9 + 47.5 g/L glutaric acid (neutralized with sodium hydroxide)
[4] = strain GLUT1-3, M9 + 47.5 g/L glutaric acid (neutralized), knockout experiment (Table 14)
[5] = strain GLUT1-9, M9 + 47.5 g/L glutaric acid (neutralized with sodium hydroxide)
[6] = strain GLUT1-10, M9 + 47.5 g/L glutaric acid (neutralized with sodium hydroxide)
[7] = strain GLUT1-10, M9 + 47.5 g/L glutaric acid (neutralized), knockout experiment (Table 14)
[8] = strain GLUT2-1, M9 + 47.5 g/L glutaric acid (neutralized with sodium hydroxide)
[9] = strain GLUT2-9, M9 + 47.5 g/L glutaric acid (neutralized with sodium hydroxide)
[10] = strain GLUT2-10, M9 + 47.5 g/L glutaric acid (neutralized with sodium hydroxide)
[11] = strain GLUT3-5, M9 + 47.5 g/L glutaric acid (neutralized with sodium hydroxide)
[12] = strain GLUT3-7, M9 + 47.5 g/L glutaric acid (neutralized with sodium hydroxide)
[13] = strain GLUT3-9, M9 + 47.5 g/L glutaric acid (neutralized with sodium hydroxide)
[14] = strain GLUT4-1, M9 + 47.5 g/L glutaric acid (neutralized with sodium hydroxide)
[15] = strain GLUT4-1, M9 + 47.5 g/L glutaric acid (neutralized), knockout experiment (Table 14)
[16] = strain GLUT4-4, M9 + 47.5 g/L glutaric acid (neutralized with sodium hydroxide)
[17] = strain GLUT4-10, M9 + 47.5 g/L glutaric acid (neutralized with sodium hydroxide)
[18] = strain GLUT5-4, M9 + 47.5 g/L glutaric acid (neutralized with sodium hydroxide)
[19] = strain GLUT5-5, M9 + 47.5 g/L glutaric acid (neutralized with sodium hydroxide)
[20] = strain GLUT6-4, M9 + 47.5 g/L glutaric acid (neutralized with sodium hydroxide)
[21] = strain GLUT6-5, M9 + 47.5 g/L glutaric acid (neutralized with sodium hydroxide)
[22] = strain GLUT6-10, M9 + 47.5 g/L glutaric acid (neutralized with sodium hydroxide)
[23] = strain GLUT7-2, M9 + 47.5 g/L glutaric acid (neutralized with sodium hydroxide)
[24] = strain GLUT7-6, M9 + 47.5 g/L glutaric acid (neutralized with sodium hydroxide)
[25] = strain GLUT7-7, M9 + 47.5 g/L glutaric acid (neutralized with sodium hydroxide)
[26] = strain GLUT8-5, M9 + 47.5 g/L glutaric acid (neutralized with sodium hydroxide)
[27] = strain GLUT8-6, M9 + 47.5 g/L glutaric acid (neutralized with sodium hydroxide)
[28] = strain GLUT8-6, M9 + 47.5 g/L glutaric acid (neutralized), knockout experiment (Table 14)
[29] = strain GLUT8-9, M9 + 47.5 g/L glutaric acid (neutralized with sodium hydroxide)
[30] = strain MG1655, M9 + 47.5 g/L glutaric acid (neutralized with sodium hydroxide)
[31] = strain MG1655, M9 + 47.5 g/L glutaric acid (neutralized), knockout experiment (Table 14)
[32] = strain MG1655 kgtP::kan, M9 + 47.5 g/L glutaric acid (neutralized)
[33] = strain MG1655 proV::kan, M9 + 47.5 g/L glutaric acid (neutralized)
[34] = strain MG1655 ybjL::kan, M9 + 47.5 g/L glutaric acid (neutralized)
[35] = strain MG1655 ΔkgtP proV::kan, M9 + 47.5 g/L glutaric acid (neutralized)
[36] = strain MG1655 ΔkgtP sspA::kan, M9 + 47.5 g/L glutaric acid (neutralized)
[37] = strain MG1655 ΔkgtP ybjL::kan, M9 + 47.5 g/L glutaric acid (neutralized)
[38] = strain MG1655 ΔkgtP ΔproV ybjL::kan, M9 + 47.5 g/L glutaric acid (neutralized)

O=C(O)CCCC(=O)O [glutaric acid]
tlag (lag time), mean ([1]; 10 g/L): 2.0 h
μ (growth rate), mean ([1]; 10 g/L, M9+1% glucose, 37° C): 0.526 h⁻¹
tlag (lag time), mean ([1]; 20 g/L): 1.9 h
μ (growth rate), mean ([1]; 20 g/L): 0.377 h⁻¹
tlag (lag time), mean ([1]; 30 g/L): 0.6 h
μ (growth rate), mean ([1]; 30 g/L): 0.234 h⁻¹
tlag (lag time), mean ([1]; 40 g/L): 0.7 h
μ (growth rate), mean ([1]; 40 g/L): 0.132 h⁻¹
tlag (lag time), mean ([1]; 50 g/L): 15.9 h
μ (growth rate), mean ([1]; 50 g/L): 0.096 h⁻¹
μ (growth rate), mean ([1]; 75 g/L): 0.000 h⁻¹
maximum measured concentration at which exponentially growing K-12 MG1655 can grow ([1]; neutralized diacid in M9+1% glucose): 50 g/L
mean growth rate μ [2, 3]: 0.304 h⁻¹
mean lag time tlag [2, 3]: 5.1 h
mean growth rate μ [2, 4]: 0.278 h⁻¹
mean lag time tlag [2, 4]: 4.6 h
mean growth rate μ [2, 5]: 0.319 h⁻¹
mean lag time tlag [2, 5]: 6.4 h
mean growth rate μ [2, 6]: 0.458 h⁻¹
mean lag time tlag [2, 6]: 11.3 h
mean growth rate μ [2, 7]: 0.442 h⁻¹
mean lag time tlag [2, 7]: 10.8 h
mean growth rate μ [2, 8]: 0.276 h⁻¹
mean lag time tlag [2, 8]: 6.8 h
mean growth rate μ [2, 9]: 0.298 h⁻¹
mean lag time tlag [2, 9]: 6.5 h
mean growth rate μ [2, 10]: 0.378 h⁻¹
mean lag time tlag [2, 10]: 6.5 h
mean growth rate μ [2, 11]: 0.284 h⁻¹
mean lag time tlag [2, 11]: 5.6 h
mean growth rate μ [2, 12]: 0.277 h⁻¹
mean lag time tlag [2, 12]: 5.6 h
mean growth rate μ [2, 13]: 0.324 h⁻¹
mean lag time tlag [2, 13]: 8.3 h
mean growth rate μ [2, 14]: 0.279 h⁻¹
mean lag time tlag [2, 14]: 6.2 h
mean growth rate μ [2, 15]: 0.312 h⁻¹
mean lag time tlag [2, 15]: 7.1 h
mean growth rate μ [2, 16]: 0.287 h⁻¹
mean lag time tlag [2, 16]: 6.6 h
mean growth rate μ [2, 17]: 0.297 h⁻¹
mean lag time tlag [2, 17]: 6.9 h
mean growth rate μ [2, 18]: 0.438 h⁻¹
mean lag time tlag [2, 18]: 17.0 h
mean growth rate μ [2, 19]: 0.349 h⁻¹
mean lag time tlag [2, 19]: 14.5 h
mean growth rate μ [2, 20]: 0.277 h⁻¹
mean lag time tlag [2, 20]: 5.9 h
mean growth rate μ [2, 21]: 0.300 h⁻¹
mean lag time tlag [2, 21]: 6.5 h
mean growth rate μ [2, 22]: 0.341 h⁻¹
mean lag time tlag [2, 22]: 6.7 h
mean growth rate μ [2, 23]: 0.318 h⁻¹
mean lag time tlag [2, 23]: 6.6 h
mean growth rate μ [2, 24]: 0.318 h⁻¹
mean lag time tlag [2, 24]: 7.1 h
mean growth rate μ [2, 25]: 0.283 h⁻¹
mean lag time tlag [2, 25]: 7.8 h
mean growth rate μ [2, 26]: 0.322 h⁻¹
mean lag time tlag [2, 26]: 6.2 h
mean growth rate μ [2, 27]: 0.347 h⁻¹
mean lag time tlag [2, 27]: 7.1 h
mean growth rate μ [2, 28]: 0.402 h⁻¹
mean lag time tlag [2, 28]: 7.8 h
mean growth rate μ [2, 29]: 0.345 h⁻¹
mean lag time tlag [2, 29]: 7.4 h
mean growth rate μ [2, 30]: 0.103 h⁻¹
mean lag time tlag [2, 30]: 10.7 h
mean growth rate μ [2, 31]: 0.100 h⁻¹
mean lag time tlag [2, 31]: 10.4 h
mean growth rate μ [2, 32]: 0.181 h⁻¹
mean lag time tlag [2, 32]: 5.8 h
mean growth rate μ [2, 33]: 0.085 h⁻¹
mean lag time tlag [2, 33]: 0.6 h
mean growth rate μ [2, 34]: 0.126 h⁻¹
mean lag time tlag [2, 34]: 12.8 h
mean growth rate μ [2, 35]: 0.244 h⁻¹
mean lag time tlag [2, 35]: 6.5 h
mean growth rate μ [2, 36]: 0.256 h⁻¹
mean lag time tlag [2, 36]: 5.7 h
mean growth rate μ [2, 37]: 0.213 h⁻¹
mean lag time tlag [2, 37]: 6.0 h
mean growth rate μ [2, 38]: 0.300 h⁻¹
mean lag time tlag [2, 38]: 7.0 h
